From patent US20070032465A1, “Pharmaceutical composition comprising a p2x7-receptor antagonist and a tumour necrosis factor alpha” (priority 2003, published 2007)

System: Streptococcal cell wall (SCW)-induced arthritis in female Lewis rats
Experiment: Rat streptococcal cell wall (SCW)-induced arthritis: ankle swelling and von Frey mechanical threshold
Type: in vivo
Conditions: P2X7 antagonist 1 30 mg/kg oral bid, Etanercept 0.5 mg/kg s.c.; for % reduction of AUC (compared to arthritic vehicle control), Ankle swelling: AUC from day -1 to day 6 post-induction; for % reduction of AUC (compared to arthritic vehicle control), Von Frey threshold: von Frey filaments on days -1, 1, 3, 5
Text: Assessment of Anti-Inflammatory Activity of TNFα Inhibitor/P2X7 Anatagonist Combinations in Rat Streptococcal Cell Wall-Induced Arthritis. ^1 1. Experimental procedure based on that described by Carlson R P, Jacobsen P B; ‘Comparison of adjuvant and streptococcal cell wall-induced arthritis in the rat’ in Morgan D W, Marshall L A, editors; In Vivo Models of Inflammation. Basel: Birkhauser Verlag; 1999.
Streptococcal cell wall (SCW)-induced arthritis was induced in the left ankle of female Lewis rats. Animals were sensitised by intra-articular injection of 5 μg (in 20 μL) SCW (Lee Laboratories) into the left ankle. Ankle swelling was assessed 3 days after injection and non-responders (animals with no apparent ankle swelling) were rejected. Responding animals were randomly allocated to the test groups.
Arthritis was induced 21 days after sensitisation by intravenous (iv) injection of SCW (100 μg in 500 μL saline). Animals were monitored and assessed on a daily basis through to termination 6 days after induction. The rats were housed on sawdust and provided with food and water ad libitum.
In this example the P2X7 antagonist 1, was orally dosed at 30 mg/kg (4 mL/kg, bid). The compound was dosed as a suspension in 1% (w/v) methylcellulose in deionised water and was freshly prepared on a daily basis. Dosing commenced 1 day prior to induction of arthritis and continued through to termination on day 6 post-induction. Etanercept (0.5 mg/kg) was administered by subcutaneous injection (1 mL/kg) 1 day prior to induction of arthritis and then on days 1, 3 and 5 post-induction.
Ankle diameters were measured with vernier callipers on a daily basis from day −1. Mechanical thresholds were assessed using von Frey filaments on days −1, 1, 3 and 5. The filaments were applied in increasing weights to the ankle region on the footpad of both feet. The first filament to induce a withdrawal response was considered to be the threshold.
Effects on ankle swelling and mechanical threshold were calculated on an area under the curve (AUC) basis, as the sum of the differences from individual day −1 values. The size and direction of the interaction was calculated and data analysis performed by ANOVA followed by Dunnett's test on the AUC data (SAS version 8.01).

Row | Compound | % reduction of AUC (compared to arthritic vehicle control), Ankle swelling | % reduction of AUC (compared to arthritic vehicle control), Von Frey threshold
1 | Cc1ccc(C(=O)N2CC3CNCC(C2)O3)cc1NC(=O)CC12CC3CC(CC(C3)C1)C2.Cl [P2X7 antagonist 1, N-[2-Methyl-5-(9-oxa-3,7-diazabicyclo[3.3.1]non-3-ylcarbonyl)phenyl]-tricyclo[3.3.1.1^3,7]decane-1-acetamide, hydrochloride] | 28.5 ± 13.5% | 21.1 ± 10.9%
2 | Etanercept | 44.0 ± 4.7 % | 7.4 ± 6.8%
